The source of these data is patent US20050227978A1, “Fibrosis inhibitor” (Sumitomo Pharmaceuticals Co., Ltd., priority 2002, published 2005).

One experiment deals with TGF-β. The experiment is described as follows: Effects on the extracellular matrix (proteoglycan) production by TGF-β in NRK-49F fibroblasts. The conditions noted are these: Rattus norvegicus, NRK-49F cells, 3 ng/ml TGF-β, [35S]-proteoglycan radioactivity, 24 hours, read-out: TGF-β inhibitory rate (%); for inhibition at 3 µM: test compound 3 μM; for inhibition at 10 µM: test compound 10 μM. The format is cell-based. The protocol: Effects on the Extracellular Matrix Production by TGF-β
The effect of the compounds of Examples on the production of proteoglycan when TGF-β was added to fibroblast was evaluated.
NRK-49F cells (rat fibroblast) were cultured in Dulbecco's Modified Eagle Medium (DMEM: manufactured by GIBCO) containing 10% bovine serum, and used in this experiment. The cells were put into a 96-well plate in an amount of 2.5×10^4 cells/100 μl/well. On the next day, the medium in the plate was exchanged to the DMEM medium containing 3 ng/ml of TGF-β (manufactured by Nacalai Tesque, Inc.), 0.5 μCi/well of [^35S]-Na2SO4, and a test compound. Twenty-four hours thereafter, the supernatant was collected, and subjected to SDS-polyacrylamide gel electrophoresis (SDS-PAGE) in a conventional manner. The gel after electrophoresis was dried with a gel drier, and exposed to an imaging plate, which was analyzed with BSA2000 (manufactured by Fuji Photo Film). The radioactivity of proteoglycan to be electrophoresed was measured, and the TGF-β inhibitory rate was calculated by the following equation. TGF-β Inhibitory rate (%)=(A−B)×100/(A−C) • A: Radioactivity in the presence of TGF-β without a test compound • B: Radioactivity in the presence of TGF-β and a test compound • C: Radioactivity in the absence of TGF-β and a test compound

For experiment [1], the system named is rat Thy-1 nephritis model. The experiment is described as follows: Evaluation using rat Thy-1 nephritis model (kidney fibrosis). The note with it: 7 days. The experiment is classed as in vivo. Here is the method:
The anti-fibrosis activity was evaluated on the compounds of Examples 9, 14, 110, 120 and 136 by using a rat Thy-1 nephritis model, which is an animal model for kidney fibrosis (cf., “Kidney and Dialysis”, vol. 31, p. 343-347 (1991)). Thy-1 is one of the surface antigens of thymocyte.
Male Wister rats were purchased from Charles River Japan, Inc. at an age of 3-weeks old. After pre-feeding, the animals were used in this experiment when their body weights became about 100 g. The animals were kept in a room being controlled at a temperature of 24±2° C. under a humidity of 55±10%, with an illumination cycle of light on (8:00 to 20:00). The animals were given solid diet pellets (CRF-1, Oriental Yeast Co. Ltd.) and sterilized tap water ad libitum.
Anti-Thy-1 monoclonal antibody (OX-7, Biosource International Inc.) was administered to the rats at a dose of 50 μg/100 g of body weight at the tail vein. Then, the animals were grouped into the vehicle-treated group (n=8) and the test compound-treated group (n=8) with respect to the body weight. From the day of administration of anti-Thy-1 monoclonal antibody, a test compound, which was suspended in a 0.5% carboxymethylcellulose (vehicle), […] To the vehicle-treated group, a vehicle was administered likewise.
After the administration for 7 days, the right kidney of the rats was taken out, and the content of hydroxyproline therein, which was an index for organ fibrosis, was measured according to the method of J. F. Woessner, et al. (Arch. Biochem. Biophys. Vol. 93 p440 (1961)). That is, the kidney was homogenized, and 500 μL of the suspension was dried, and thereto was added a 4N aqueous sodium hydroxide solution (225 μL). The mixture was heated on a heat block at 100° C. for 15 minutes to hydrolyze proteins, and the mixture was neutralized with a 1.4 M aqueous citric acid solution (275 μL). The mixture was centrifuged at 3000 rpm for 10 minutes at room temperature, and the supernatant was collected as a kidney extract. To the extract were added Chloramine T solution and an Ehrlich solution (which was prepared by adding n-propanol (31 ml) to p-dimethylaminobenzaldehyde (7.5 g), and further slowly adding thereto a 60% perchloric acid (13 mL), and followed by adjusting the volume to 50 ml by distilled water), and the mixture was reacted at 65° C. for 15 minutes. The OD 550 (absorbance at 550 nm) was measured, and the concentration of hydroxyproline was calculated from the analytical curve of hydroxyproline. The content of hydroxyproline thus obtained was adjusted with respect to the protein amount in the kidney extract.
Each value was expressed in average value±standard deviation of 8 animals in each group.

On to `Cc1ccc(C(=O)c2cccn2Cc2cnc3ccccc3c2)cc1` [Example 2], for which, in the experiment with TGF-β, the inhibition at 3 µM was 33% and the inhibition at 10 µM is 61%.

In the case of `Cc1ccc(C(=O)c2cccn2Cc2ccnc3ccccc23)cc1` [Example 3], in the experiment with TGF-β, the inhibition at 3 µM is 25% and the inhibition at 10 µM was 38%.

For `Cc1ccc(Cc2cccn2Cc2ccc3ccccc3n2)cc1` [Example 5], in the experiment with TGF-β, the inhibition at 3 µM came out at 6% and the inhibition at 10 µM was 51%.

Turning to `Cc1ccc(S(=O)(=O)n2cccc2C(O)c2cnc3ccccc3c2)cc1` (centres unmarked) [Example 6, (1-p-toluenesulfonyl-1H-pyrrol-2-yl)(3-quinolyl)methanol], in the experiment on TGF-β, the inhibition at 3 µM is 66% and the inhibition at 10 µM was 88%.

With `Cc1ccc(Cn2cccc2Cc2cnc3ccccc3c2)cc1` [Example 7, 1-(4-methylbenzyl)-2-(3-quinolylmethyl)-1H-pyrrole], in the experiment with TGF-β, the inhibition at 3 µM was determined as 44% and the inhibition at 10 µM stood at 78%.

In the case of `Cc1ccc(C(=O)c2cccn2Cc2cnc3cccnc3n2)cc1` [Example 8], in the experiment on TGF-β, the inhibition at 3 µM was 16% and the inhibition at 10 µM was 46%.

With `Cc1ccc(C(=O)c2cccn2C/C=C/c2ccc(Cl)cc2C(=O)O)cc1` [Example 9], in the experiment with TGF-β, the inhibition at 3 µM came out at 88% and the inhibition at 10 µM was 91%. This compound also displayed a Hydroxyproline content in experiment [1] (15 mg/kg oral once a day, right kidney, Table 2: normal rat 6.7 ± 1.6, vehicle 8.7 ± 2.0, mean ± SD, n=8) of 7.2 ± 2.1 μg/mg protein.

In the case of `C=CCOc1ccc(C(=O)c2cccn2Cc2cnc3ccccc3c2)cc1` [Example 10], in the experiment with TGF-β, the inhibition at 3 µM was found to be 63% and the inhibition at 10 µM is 86%.

As for `O=C(c1ccc(O)cc1)c1cccn1Cc1cnc2ccccc2c1` [Example 14], in the experiment on TGF-β, the inhibition at 3 µM was 40% and the inhibition at 10 µM was 56%. The compound further had a Hydroxyproline content in experiment [1] (150 mg/kg oral once a day, right kidney, Table 2: normal rat 6.7 ± 1.6, vehicle 8.7 ± 2.0, P < 0.05 vs vehicle) of 6.3 ± 1.3 μg/mg protein.

For `Cc1ccc(C(=O)c2cccn2C/C=C/c2ccccc2C(=O)O)cc1` [Example 19], in the experiment with TGF-β, the inhibition at 3 µM amounted to 51% and the inhibition at 10 µM was 72%.

Turning to `Cc1ccc(C(O)c2cccn2Cc2cnc3ccccc3c2)cc1` (centres unmarked) [Example 20, [1-(3-quinolylmethyl)-1H-pyrrol-2-yl](4-methylphenyl)methanol], in the experiment on TGF-β, the inhibition at 3 µM turned out to be 61% and the inhibition at 10 µM was 90%.

Consider `Cc1ccc(Cc2cccn2Cc2cnc3ccccc3c2Cl)cc1` [Example 25], for which, in the experiment with TGF-β, the inhibition at 3 µM was found to be 6% and the inhibition at 10 µM was determined as 74%.

Regarding `Cc1ccc(C(=O)c2cccn2Cc2cnc3cccc(C(N)=O)c3c2)cc1` [Example 31], in the experiment with TGF-β, the inhibition at 3 µM was determined as 34% and the inhibition at 10 µM was found to be 38%.

As to `Cc1ccc(C(=O)c2cccn2Cc2cnc3cc(Cl)ccc3c2)cc1` [Example 33], in the experiment on TGF-β, the inhibition at 3 µM worked out at 74% and the inhibition at 10 µM turned out to be 91%.

Consider `Cc1ccc(C(=O)c2cccn2Cc2cnc3c(C#N)cccc3c2)cc1` [Example 38], for which, in the experiment on TGF-β, the inhibition at 3 µM was 51% and the inhibition at 10 µM is 40%.

Take `Cc1ccc(C(=O)c2cccn2Cc2cnc3cccc(C(=O)O)c3c2)cc1` [Example 43]: in the experiment on TGF-β, the inhibition at 3 µM was 31% and the inhibition at 10 µM came to 66%.

Regarding `Cc1ccc(C(=O)c2cccn2Cc2cnc3c(/C=C/C(=O)N(C)C)cccc3c2)cc1` [Example 61], in the experiment with TGF-β, the inhibition at 3 µM was 15% and the inhibition at 10 µM turned out to be 86%.

Turning to `Cc1ccc(C(=O)c2cccn2Cc2cnc3ccccc3n2)cc1` [Example 64], in the experiment on TGF-β, the inhibition at 3 µM was determined as 43% and the inhibition at 10 µM worked out at 75%.

For the compound `Cc1ccc(C(=O)c2cccn2Cc2cnc3c(C#N)cccc3n2)cc1` [Example 66], in the experiment with TGF-β, the inhibition at 3 µM turned out to be 88% and the inhibition at 10 µM is 94%.

`Cc1ccc(C(=O)c2cccn2Cc2cnc3cc(C#N)ccc3n2)cc1` [Example 67]: in the experiment with TGF-β, the inhibition at 3 µM was found to be 55% and the inhibition at 10 µM is 75%.

As for `Cc1ccc(C(=O)c2cccn2Cc2cnc3ncccc3n2)cc1` [Example 73], in the experiment with TGF-β, the inhibition at 3 µM came out at 70% and the inhibition at 10 µM stood at 85%.

As to `CN(C)C(=O)c1ccc(C(=O)c2cccn2Cc2cnc3ccccc3c2)cc1` [Example 76], in the experiment on TGF-β, the inhibition at 3 µM turned out to be 56% and the inhibition at 10 µM came out at 58%.

For `Cc1ccc(C(=O)c2cccn2Cc2cnc3ccccc3c2)cc1OCC(O)CO` (centres unmarked) [Example 83], in the experiment on TGF-β, the inhibition at 3 µM was determined as 42% and the inhibition at 10 µM came out at 47%.

Consider `Cc1ccc(C(=O)c2cccn2Cc2cnc3ccccc3c2)c(O)c1` [Example 85], for which, in the experiment with TGF-β, the inhibition at 3 µM came to 29% and the inhibition at 10 µM was 75%.

With `COc1ccc(C(=O)c2cccn2Cc2cnc3ccccc3n2)cc1` [Example 91], in the experiment with TGF-β, the inhibition at 3 µM was found to be 66% and the inhibition at 10 µM was determined as 73%.

As to `O=C(c1ccc(OCCN2CCOCC2)cc1)c1cccn1Cc1cnc2ccccc2c1` [Example 97], in the experiment on TGF-β, the inhibition at 3 µM came to 58% and the inhibition at 10 µM worked out at 75%.

In the case of `COC(=O)c1cc(Cl)ccc1/C=C/Cn1cccc1C(=O)c1ccc(O)cc1` [Example 103], in the experiment on TGF-β, the inhibition at 3 µM worked out at 55% and the inhibition at 10 µM came out at 90%.

As to `Cc1ccc(C(=O)c2cccn2Cc2cnc3nccnc3c2)cc1` [Example 105], in the experiment on TGF-β, the inhibition at 3 µM was 14% and the inhibition at 10 µM was 48%.

Take `Cc1ccc(C(=O)c2cc(C)cn2Cc2cnc3ccccc3c2)cc1` [Example 107]: in the experiment on TGF-β, the inhibition at 3 µM amounted to 90% and the inhibition at 10 µM turned out to be 95%.

Take `Cc1ccc(C(=O)c2c(C)ccn2Cc2cnc3ccccc3c2)cc1` [Example 108]: in the experiment on TGF-β, the inhibition at 3 µM came out at 42% and the inhibition at 10 µM came to 56%.

Consider `COc1ccc(C(=O)c2cc(C)cn2C/C=C/c2ccc(Cl)cc2C(=O)O)cc1` [Example 110], for which the Hydroxyproline content in experiment [1] (1.5 mg/kg oral, kidney, Table 3: normal rat 8.2 ± 0.8, vehicle 11.8 ± 0.6, P < 0.01 vs vehicle) is listed as 10.1 ± 0.8 μg/mg protein; in experiment [1] (5 mg/kg oral, kidney, Table 3: normal rat 8.2 ± 0.8, vehicle 11.8 ± 0.6, P < 0.01 vs vehicle), 9.5 ± 0.8 μg/mg protein; in experiment [1] (15 mg/kg oral, kidney, Table 3: normal rat 8.2 ± 0.8, vehicle 11.8 ± 0.6, P < 0.01 vs vehicle) it was 9.7 ± 0.7 μg/mg protein; in experiment [1] (50 mg/kg oral, kidney, Table 3: normal rat 8.2 ± 0.8, vehicle 11.8 ± 0.6, P < 0.01 vs vehicle), 9.5 ± 0.6 μg/mg protein.

Turning to `COC(=O)c1cc(Cl)ccc1/C=C/Cn1cc(C)cc1C(=O)c1ccc(O)cc1` [Example 111], in the experiment with TGF-β, the inhibition at 3 µM worked out at 90% and the inhibition at 10 µM stood at 118%.

Turning to `Cc1ccc(C(=O)c2cc(C=O)cn2C/C=C/c2ccc(Cl)cc2C(=O)O)cc1` [Example 112], in the experiment with TGF-β, the inhibition at 3 µM was 23% and the inhibition at 10 µM was determined as 73%.

For the compound `Cc1ccc(C(=O)c2cccn2C/C=C/c2ccc(Cl)cc2C(=O)NS(C)(=O)=O)cc1` [Example 115], in the experiment with TGF-β, the inhibition at 3 µM was determined as 46% and the inhibition at 10 µM worked out at 56%.

`CNC(=O)c1cc(Cl)ccc1/C=C/Cn1cccc1C(=O)c1ccc(C)cc1` [Example 117]: in the experiment with TGF-β, the inhibition at 3 µM was 71% and the inhibition at 10 µM turned out to be 83%.
